Experimental findings from patent US11312712B2, “Azabenzimidazoles and their use as AMPA receptor modulators” (Janssen Pharmaceutica NV, priority 2015, dated 2022) are described below.

Molecules are shown by their SMILES.

Chain of GluA1o-γ8 (GRIA1o-CACNG8 fusion construct) (P42261 other isoform, or with tags, fused parts or gaps): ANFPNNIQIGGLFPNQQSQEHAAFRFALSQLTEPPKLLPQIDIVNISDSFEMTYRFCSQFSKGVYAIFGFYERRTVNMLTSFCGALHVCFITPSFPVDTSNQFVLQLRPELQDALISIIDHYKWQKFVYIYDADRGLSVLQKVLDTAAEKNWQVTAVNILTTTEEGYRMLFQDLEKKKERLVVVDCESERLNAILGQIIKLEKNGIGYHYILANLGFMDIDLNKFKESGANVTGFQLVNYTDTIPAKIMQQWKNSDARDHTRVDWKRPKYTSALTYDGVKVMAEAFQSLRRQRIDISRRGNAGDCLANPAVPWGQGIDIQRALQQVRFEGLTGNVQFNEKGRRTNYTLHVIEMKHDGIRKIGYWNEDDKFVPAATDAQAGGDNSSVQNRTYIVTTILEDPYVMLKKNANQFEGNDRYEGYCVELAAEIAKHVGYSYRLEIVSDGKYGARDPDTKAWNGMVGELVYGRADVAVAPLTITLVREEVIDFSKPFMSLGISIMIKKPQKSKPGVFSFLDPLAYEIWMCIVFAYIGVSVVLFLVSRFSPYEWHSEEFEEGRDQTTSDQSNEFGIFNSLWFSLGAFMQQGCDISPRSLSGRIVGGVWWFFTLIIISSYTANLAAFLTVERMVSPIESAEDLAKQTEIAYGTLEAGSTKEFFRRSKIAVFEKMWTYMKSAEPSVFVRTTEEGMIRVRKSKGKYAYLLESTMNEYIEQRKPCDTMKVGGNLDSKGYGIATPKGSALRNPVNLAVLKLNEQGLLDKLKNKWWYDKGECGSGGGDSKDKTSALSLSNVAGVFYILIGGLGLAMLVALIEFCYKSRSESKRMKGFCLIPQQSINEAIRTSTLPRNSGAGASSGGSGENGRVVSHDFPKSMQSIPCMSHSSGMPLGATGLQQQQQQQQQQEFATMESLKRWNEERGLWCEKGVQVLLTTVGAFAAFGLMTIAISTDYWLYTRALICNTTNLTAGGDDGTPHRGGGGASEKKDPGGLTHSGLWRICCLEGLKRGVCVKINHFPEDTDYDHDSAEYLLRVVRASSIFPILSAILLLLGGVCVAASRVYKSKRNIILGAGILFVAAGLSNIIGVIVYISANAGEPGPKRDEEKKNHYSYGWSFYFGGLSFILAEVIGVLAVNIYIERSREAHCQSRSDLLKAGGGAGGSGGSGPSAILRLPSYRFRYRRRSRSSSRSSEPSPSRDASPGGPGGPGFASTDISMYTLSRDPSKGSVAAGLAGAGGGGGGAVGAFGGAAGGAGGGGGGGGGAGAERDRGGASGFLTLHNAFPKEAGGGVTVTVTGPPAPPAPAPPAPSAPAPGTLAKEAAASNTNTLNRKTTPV

The assay has as its target GluA1o-γ8 (GRIA1o-CACNG8 fusion construct) (Homo sapiens (Human), UniProt P42261+Q8WXS5). In words: Calcium flux assay (FLIPR), inhibition of TARP γ8 dependent AMPA receptor activity. The assay is classed as cell-based. The following applies: GluA1o-γ8 (GRIA1o-CACNG8 fusion) in HEK293 cells, calcium flux after 15 μM glutamate. In outline:
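HEK293 cells stably expressing a 1:1 GRIA1o–CACNG8 fusion were loaded with Calcium-5/6 dye plus compound in pH 7.4 HEPES-buffered saline. FLIPR calcium flux after 15 μM glutamate was normalized to untreated and 10 μM CP465022 controls, and a four-parameter logistic fit gave pIC50.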
(In general: Calcium assays in cells follow changes in intracellular calcium, usually with a dye or a luminescent sensor.)
For `Cc1cc2cccnc2n1-c1cc(F)c2c(c1)CC(=O)N2` [Example 363, 7-Fluoro-5-(2-methylpyrrolo[2,3-b]pyridin-1-yl)indolin-2-one], the IC50 (commonly the midpoint of a concentration-inhibition curve) was 200 nM. For `Cc1cc2ccc(C(F)(F)F)nc2n1-c1cc(F)c2c(c1)CC(=O)N2` [Example 364, 7-Fluoro-5-[2-methyl-6-(trifluoromethyl)pyrrolo[2,3-b]pyridin-1-yl]indolin-2-one], the 50% inhibitory concentration (IC50) was 3160 nM.

Turning to `COCc1cc2ccc(C(F)(F)F)nc2n1-c1cc(F)c2c(c1)CC(=O)N2` [Example 366, 7-Fluoro-5-[2-(methoxymethyl)-6-(trifluoromethyl)pyrrolo[2,3-b]pyridin-1-yl]indolin-2-one], the IC50 is 0.631 nM. For `Cc1cc(-n2c(C(C)C)cc3ccc(C(F)(F)F)nc32)cc2c1NC(=O)C2` [Example 367, 5-[2-Isopropyl-6-(trifluoromethyl)pyrrolo[2,3-b]pyridin-1-yl]-7-methyl-indolin-2-one], the IC50 is 0.0251 nM. As for `CC(C)c1cc2ccc(C(F)(F)F)nc2n1-c1cc(F)c2c(c1)CC(=O)N2` [Example 369, 7-Fluoro-5-[2-isopropyl-6-(trifluoromethyl)pyrrolo[2,3-b]pyridin-1-yl]indolin-2-one], the IC50 is 0.00794 nM. As to `Cc1cc(-n2c(C(C)C)cc3ccc(C(F)(F)F)nc32)cc2cn[nH]c12` [Example 370, 2-Isopropyl-1-(7-methyl-1H-indazol-5-yl)-6-(trifluoromethyl)pyrrolo[2,3-b]pyridine], the IC50 is 0.00794 nM. `Cc1cc(-n2c(CCCF)cc3ccc(C(F)(F)F)nc32)cc2cn[nH]c12` [Example 371, 2-(3-Fluoropropyl)-1-(7-methyl-1H-indazol-5-yl)-6-(trifluoromethyl)pyrrolo[2,3-b]pyridine]: the IC50 was 0.0398 nM. With `FCCCc1cc2ccc(C(F)(F)F)nc2n1-c1cc(Cl)c2[nH]ncc2c1` [Example 372, 1-(7-Chloro-1H-indazol-5-yl)-2-(3-fluoropropyl)-6-(trifluoromethyl)pyrrolo[2,3-b]pyridine], the IC50 is 0.0316 nM. For `Cc1cc(-n2c(C)cc3ccc(C(F)(F)F)nc32)cc2cn[nH]c12` [Example 373, 2-Methyl-1-(7-methyl-1H-indazol-5-yl)-6-(trifluoromethyl)pyrrolo[2,3-b]pyridine], the IC50 is 0.0501 nM.

With `Cc1cc2ccc(C(F)(F)F)nc2n1-c1cc(Cl)c2[nH]ncc2c1` [Example 374, 1-(7-Chloro-1H-indazol-5-yl)-2-methyl-6-(trifluoromethyl)pyrrolo[2,3-b]pyridine], the half-maximal inhibitory concentration (IC50) is 0.0126 nM.

With `Cc1cc(-n2c(C)cc3cccnc32)cc2cn[nH]c12` [Example 375, 2-Methyl-1-(7-methyl-1H-indazol-5-yl)pyrrolo[2,3-b]pyridine], the IC50 was 10 nM. `CC(C)c1cc2ccc(C(F)(F)F)nc2n1-c1cnc2[nH]ncc2c1` [Example 376, 5-[2-Isopropyl-6-(trifluoromethyl)pyrrolo[2,3-b]pyridin-1-yl]-1H-pyrazolo[3,4-b]pyridine]: the IC50 is 0.0501 nM. With `Cc1cc(-n2ccc3ccc(C(F)(F)F)nc32)cc2cn[nH]c12` [Example 377, 1-(7-Methyl-1H-indazol-5-yl)-6-(trifluoromethyl)pyrrolo[2,3-b]pyridine] the figure was 2 nM; with `Cc1ccc2ccn(-c3cc(C)c4c(c3)CC(=O)N4)c2n1` [Example 378, 7-Methyl-5-(6-methylpyrrolo[2,3-b]pyridin-1-yl)indolin-2-one], 100 nM; with `Cc1ccc2ccn(-c3cc(F)c4c(c3)CC(=O)N4)c2n1` [Example 379, 7-Fluoro-5-(6-methylpyrrolo[2,3-b]pyridin-1-yl)indolin-2-one], 100 nM. For `Cc1ccc2cc(C3CC3)n(-c3ccc4c(c3)CC(=O)N4)c2n1` [Example 380, 5-(2-Cyclopropyl-6-methyl-pyrrolo[2,3-b]pyridin-1-yl)indolin-2-one] the value was 1 nM; for `Cc1ccc2cc(-c3ccc(F)cc3)n(-c3ccc4[nH]ccc4c3)c2n1` [Example 381, 2-(4-Fluorophenyl)-1-(1H-indol-5-yl)-6-methyl-pyrrolo[2,3-b]pyridine], 5.01 nM; for `Cc1ccc2cc(-c3ccc(F)cc3)n(-c3ccc4c(c3)CC(=O)N4)c2n1` [Example 382, 5-[2-(4-Fluorophenyl)-6-methyl-pyrrolo[2,3-b]pyridin-1-yl]indolin-2-one], 0.398 nM. As for `O=C1Cc2cc(-n3c(-c4ccc(F)cc4)cc4ccc(Cl)nc43)ccc2N1` [Example 383, 5-[6-Chloro-2-(4-fluorophenyl)pyrrolo[2,3-b]pyridin-1-yl]indolin-2-one], the IC50 is 0.1 nM.

Turning to `COc1ccc2cc(-c3ccc(F)cc3)n(-c3ccc4c(c3)CC(=O)N4)c2n1` [Example 384, 5-[2-(4-Fluorophenyl)-6-methoxy-pyrrolo[2,3-b]pyridin-1-yl]indolin-2-one], the IC50 was 5.01 nM. In the case of `Fc1ccc(-c2cc3ccc(Cl)nc3n2-c2ccc3[nH]ccc3c2)cc1` [Example 385, 6-Chloro-2-(4-fluorophenyl)-1-(1H-indol-5-yl)pyrrolo[2,3-b]pyridine], the IC50 is 15.8 nM.

In the case of `CC(C)(C)Oc1ccc2cc(-c3ccc(F)cc3)n(-c3ccc4[nH]ccc4c3)c2n1` [Example 386, 6-tert-Butoxy-2-(4-fluorophenyl)-1-(1H-indol-5-yl)pyrrolo[2,3-b]pyridine], the IC50 is 1580 nM.

Take `Fc1ccc(-c2cc3ccc(C(F)(F)F)nc3n2-c2ccc3[nH]ccc3c2)cc1` [Example 387, 2-(4-Fluorophenyl)-1-(1H-indol-5-yl)-6-(trifluoromethyl)pyrrolo[2,3-b]pyridine]: the IC50 is 6.31 nM. With `FC(F)(F)c1ccc2cc(-c3ccccc3)n(-c3ccc4[nH]ccc4c3)c2n1` [Example 388, 1-(1H-Indol-5-yl)-2-phenyl-6-(trifluoromethyl)pyrrolo[2,3-b]pyridine] the figure was 7.94 nM. In the case of `O=C1Cc2cc(-n3c(C4CC4)c(Br)c4ccc(C(F)(F)F)nc43)ccc2N1` [Example 389, 5-[3-Bromo-2-cyclopropyl-6-(trifluoromethyl)pyrrolo[2,3-b]pyridin-1-yl]indolin-2-one], the IC50 was 0.0631 nM. As to `Cc1ccc2cc(-c3ccccc3)n(-c3cnc4[nH]ccc4c3)c2n1` [Example 390, 6-Methyl-2-phenyl-1-(1H-pyrrolo[2,3-b]pyridin-5-yl)pyrrolo[2,3-b]pyridine], the IC50 was 1.26 nM.

On to `CC(C)c1cc2ccc(C(F)(F)F)nc2n1-c1cnc2[nH]ccc2c1` [Example 391, 2-Isopropyl-1-(1H-pyrrolo[2,3-b]pyridin-5-yl)-6-(trifluoromethyl)pyrrolo[2,3-b]pyridine], for which the IC50 was 0.631 nM.

With `Cc1ccc2c(Br)c(-c3ccccc3)n(-c3cnc4c(c3)CC(=O)N4)c2n1` [Example 393, 5-(3-Bromo-6-methyl-2-phenyl-pyrrolo[2,3-b]pyridin-1-yl)-1,3-dihydropyrrolo[2,3-b]pyridin-2-one], the IC50 is 3.16 nM. For `CC(C)c1c(Br)c2ccc(C(F)(F)F)nc2n1-c1cnc2c(c1)CC(=O)N2` [Example 394, 5-[3-Bromo-2-isopropyl-6-(trifluoromethyl)pyrrolo[2,3-b]pyridin-1-yl]-1,3-dihydropyrrolo[2,3-b]pyridin-2-one] the value was 31.6 nM; for `Cc1c(Br)c2ccc(C(F)(F)F)nc2n1-c1cnc2c(c1)CC(=O)N2` [Example 395, 5-[3-Bromo-2-methyl-6-(trifluoromethyl)pyrrolo[2,3-b]pyridin-1-yl]-1,3-dihydropyrrolo[2,3-b]pyridin-2-one], 25.1 nM. Consider `CC(C)c1cc2ccc(C(F)(F)F)nc2n1-c1ccc2c(c1)CC(=O)N2` [Example 396, 5-[2-Isopropyl-6-(trifluoromethyl)pyrrolo[2,3-b]pyridin-1-yl]indolin-2-one], for which the IC50 was 0.0126 nM. With `O=C1Cc2cc(-n3c(-c4ccccc4)cc4ccc(C(F)(F)F)nc43)ccc2N1` [Example 397, 5-[2-Phenyl-6-(trifluoromethyl)pyrrolo[2,3-b]pyridin-1-yl]indolin-2-one], the IC50 was 0.0398 nM. For `O=C1Cc2cc(-n3c(-c4ccc(F)cc4)cc4ccc(C(F)(F)F)nc43)ccc2N1` [Example 398, 5-[2-(4-Fluorophenyl)-6-(trifluoromethyl)pyrrolo[2,3-b]pyridin-1-yl]indolin-2-one] the value was 0.0631 nM. For the compound `O=C1Cc2cc(-n3c(C4CC4)cc4ccc(C(F)(F)F)nc43)ccc2N1` [Example 399, 5-[2-Cyclopropyl-6-(trifluoromethyl)pyrrolo[2,3-b]pyridin-1-yl]indolin-2-one], the concentration for half-maximal inhibition (IC50) is 0.0251 nM. Turning to `Cc1ccc2cc(-c3ccccc3)n(-c3cnc4c(c3)CC(=O)N4)c2n1` [Example 400, 5-(6-Methyl-2-phenyl-pyrrolo[2,3-b]pyridin-1-yl)-1,3-dihydropyrrolo[2,3-b]pyridin-2-one], the IC50 was 0.251 nM. `CC(C)c1cc2ccc(C(F)(F)F)nc2n1-c1cnc2c(c1)CC(=O)N2` [Example 401, 5-[2-Isopropyl-6-(trifluoromethyl)pyrrolo[2,3-b]pyridin-1-yl]-1,3-dihydropyrrolo[2,3-b]pyridin-2-one]: the IC50 is 0.0316 nM. As to `Cc1cc2ccc(C(F)(F)F)nc2n1-c1cnc2c(c1)CC(=O)N2` [Example 402, 5-[2-Methyl-6-(trifluoromethyl)pyrrolo[2,3-b]pyridin-1-yl]-1,3-dihydropyrrolo[2,3-b]pyridin-2-one], the IC50 is 10 nM.

As to `CCc1cc2cccnc2n1-c1cc(C)c2c(c1)CC(=O)N2` [Example 403, 5-(2-Ethylpyrrolo[2,3-b]pyridin-1-yl)-7-methyl-indolin-2-one], the IC50 was 1.26 nM.

For `Cc1ccc2nc(C(C)(F)F)n(-c3cc(Cl)c4[nH]ncc4c3)c2n1` [Example 410, 3-(7-Chloro-1H-indazol-5-yl)-2-(1,1-difluoroethyl)-5-methyl-3H-imidazo[4,5-b]pyridine], the IC50 is 1.26 nM.
